Data published in US12257237B2 (priority 2017, dated 2025).
Several values for one entry are separate records, joined by “and”; a condition that tells them apart may be missing. Identical values can stand only once.

System: DD013 dedifferentiated liposarcoma
Assay: Antitumour activity in DD013 dedifferentiated liposarcoma xenograft model
Format: in vivo, Athymic nude mice
Method: Experiments were performed with female Athymic nude mice, 9-10 weeks old obtained from Harlan Laboratories (Udine, Italy). They were maintained under Specific Pathogen Free conditions with constant temperature and humidity, according to the institutional guidelines.
Tumour growth mice was monitored two/three times a week (depending on tumour growth rate, to avoid unnecessary stress to the animals) by Vernier caliper. Mice were sacrificed when tumour reached a mean weight of 2±0.5 gr. The antitumour activity will be expressed as T/C %, where T and C were the mean tumour weight of treated and control groups, respectively. Mice were monitored daily and weighted at least two times a week. Tolerability was evaluated on the basis of body weight loss (BWL) and clinical observation.
Statistical analysis was performed with GraphPad Prism version 6.01 software (GraphPad software, Inc., La Jolla, CA, USA). ANOVA test was performed to evaluate if there were statistically significant differences between treated and control groups.
Briefly, xenografts were obtained by transplanting 3-4 mm tumour fragments s.c. in the flanks of mice. The growing tumour masses were measured with the aid of a Vernier caliper, and the tumour weights (TW, 1 mm^3=1 mg) were calculated by the formula: length×(width) 2/2. When tumour load achieved about 200-400 mg, mice were randomized into the experimental groups.

Cn1c(CCCCCCC(=O)NO)nc2cc(N(CCCl)CCCl)ccc21 [EDO-S101, 7-(5-(bis(2-chloroethyl)amino)-1-methyl-1H-benzo[d]imidazol-2-yl)-N-hydroxyheptanamide]
DD0113 tumour weight, Mean (EDO60: EDO-S101 60 mg/kg q7dx3, day 87 from inoculum): 393.6 mg
DD0113 tumour weight, Mean (EDO60: EDO-S101 60 mg/kg q7dx3, day 90 from inoculum): 436.6 mg
DD0113 tumour weight, individual mouse (EDO60: EDO-S101 60 mg/kg q7dx3, day 90 from inoculum, 60 mg/kg): 118.4 mg and 56.3 mg and 626.5 mg and 82.7 mg and 234.7 mg and 492.6 mg and 49.6 mg
DD0113 tumour weight, Mean (EDO60: EDO-S101 60 mg/kg q7dx3, day 94 from inoculum): 476.6 mg
DD0113 tumour weight, individual mouse (EDO60: EDO-S101 60 mg/kg q7dx3, day 94 from inoculum, 60 mg/kg): 135.6 mg and 73.5 mg and 693.0 mg and 95.1 mg and 279.8 mg and 598.8 mg and 43.4 mg
DD0113 tumour weight, Mean (EDO60: EDO-S101 60 mg/kg q7dx3, day 98 from inoculum): 451.5 mg
DD0113 tumour weight, individual mouse (EDO60: EDO-S101 60 mg/kg q7dx3, day 98 from inoculum, 60 mg/kg): 113.6 mg and 57.9 mg and 655.0 mg and 70.1 mg and 225.1 mg and 584.9 mg and 30.7 mg
DD0113 tumour weight, Mean (EDO60: EDO-S101 60 mg/kg q7dx3, day 100 from inoculum): 518.4 mg
DD0113 tumour weight, individual mouse (EDO60: EDO-S101 60 mg/kg q7dx3, day 100 from inoculum, 60 mg/kg): 122.1 mg and 86.5 mg and 751.1 mg and 87.0 mg and 297.7 mg and 718.0 mg and 40.7 mg
DD0113 tumour weight, Mean (EDO60: EDO-S101 60 mg/kg q7dx3, day 103 from inoculum): 503.0 mg
DD0113 tumour weight, individual mouse (EDO60: EDO-S101 60 mg/kg q7dx3, day 103 from inoculum, 60 mg/kg): 70.5 mg and 747.9 mg and 89.6 mg and 231.0 mg and 670.9 mg and 37.5 mg
DD0113 tumour weight, Mean (EDO60: EDO-S101 60 mg/kg q7dx3, day 111 from inoculum): 502.0 mg
DD0113 tumour weight, individual mouse (EDO60: EDO-S101 60 mg/kg q7dx3, day 111 from inoculum, 60 mg/kg): 90.0 mg and 45.6 mg and 813.1 mg and 62.2 mg and 245.9 mg and 686.9 mg and 33.9 mg
DD0113 tumour weight, Mean (EDO60: EDO-S101 60 mg/kg q7dx3, day 114 from inoculum): 624.6 mg
DD0113 tumour weight, individual mouse (EDO60: EDO-S101 60 mg/kg q7dx3, day 114 from inoculum, 60 mg/kg): 131.7 mg and 81.4 mg and 999.4 mg and 119.1 mg and 284.3 mg and 935.9 mg and 61.0 mg
DD0113 tumour weight, Mean (EDO60: EDO-S101 60 mg/kg q7dx3, day 118 from inoculum): 747.2 mg
DD0113 tumour weight, individual mouse (EDO60: EDO-S101 60 mg/kg q7dx3, day 118 from inoculum, 60 mg/kg): 157.8 mg and 79.8 mg and 1342.5 mg and 134.3 mg and 364.6 mg and 1024.5 mg and 64.1 mg
DD0113 tumour weight, Mean (EDO80: EDO-S101 80 mg/kg single dose, day 23 from inoculum): 198.0 mg
DD0113 tumour weight, individual mouse (EDO80: EDO-S101 80 mg/kg single dose, day 23 from inoculum, 80 mg/kg): 361.8 mg and 272.9 mg and 241.0 mg and 225.2 mg and 191.6 mg
DD0113 tumour weight, Mean (EDO80: EDO-S101 80 mg/kg single dose, day 26 from inoculum): 253.1 mg
DD0113 tumour weight, individual mouse (EDO80: EDO-S101 80 mg/kg single dose, day 26 from inoculum, 80 mg/kg): 410.2 mg and 433.7 mg and 275.2 mg and 338.5 mg and 196.8 mg
DD0113 tumour weight, Mean (EDO80: EDO-S101 80 mg/kg single dose, day 29 from inoculum): 251.2 mg
DD0113 tumour weight, individual mouse (EDO80: EDO-S101 80 mg/kg single dose, day 29 from inoculum, 80 mg/kg): 399.5 mg and 447.9 mg and 310.3 mg and 335.3 mg and 179.1 mg
DD0113 tumour weight, Mean (EDO80: EDO-S101 80 mg/kg single dose, day 33 from inoculum): 251.0 mg
DD0113 tumour weight, individual mouse (EDO80: EDO-S101 80 mg/kg single dose, day 33 from inoculum, 80 mg/kg): 456.2 mg and 408.9 mg and 293.6 mg and 271.4 mg and 220.9 mg
DD0113 tumour weight, Mean (EDO80: EDO-S101 80 mg/kg single dose, day 36 from inoculum): 256.4 mg
DD0113 tumour weight, individual mouse (EDO80: EDO-S101 80 mg/kg single dose, day 36 from inoculum, 80 mg/kg): 466.8 mg and 431.6 mg and 284.2 mg and 280.3 mg and 194.9 mg
DD0113 tumour weight, Mean (EDO80: EDO-S101 80 mg/kg single dose, day 40 from inoculum): 283.7 mg
DD0113 tumour weight, individual mouse (EDO80: EDO-S101 80 mg/kg single dose, day 40 from inoculum, 80 mg/kg): 569.1 mg and 476.7 mg and 364.0 mg and 279.7 mg and 216.2 mg
DD0113 tumour weight, Mean (EDO80: EDO-S101 80 mg/kg single dose, day 43 from inoculum): 284.8 mg
DD0113 tumour weight, individual mouse (EDO80: EDO-S101 80 mg/kg single dose, day 43 from inoculum, 80 mg/kg): 500.6 mg and 547.3 mg and 355.5 mg and 255.8 mg and 227.9 mg
DD0113 tumour weight, Mean (EDO80: EDO-S101 80 mg/kg single dose, day 47 from inoculum): 326.3 mg
DD0113 tumour weight, individual mouse (EDO80: EDO-S101 80 mg/kg single dose, day 47 from inoculum, 80 mg/kg): 626.2 mg and 643.5 mg and 338.2 mg and 321.9 mg and 275.0 mg
DD0113 tumour weight, Mean (EDO80: EDO-S101 80 mg/kg single dose, day 50 from inoculum): 384.4 mg
DD0113 tumour weight, individual mouse (EDO80: EDO-S101 80 mg/kg single dose, day 50 from inoculum, 80 mg/kg): 686.0 mg and 716.7 mg and 447.7 mg and 447.8 mg and 297.1 mg
DD0113 tumour weight, Mean (EDO80: EDO-S101 80 mg/kg single dose, day 54 from inoculum): 418.9 mg
DD0113 tumour weight, Mean (EDO80: EDO-S101 80 mg/kg single dose, day 58 from inoculum): 511.4 mg
DD0113 tumour weight, Mean (EDO80: EDO-S101 80 mg/kg single dose, day 62 from inoculum): 549.2 mg
DD0113 tumour weight, Mean (EDO80: EDO-S101 80 mg/kg single dose, day 65 from inoculum): 540.3 mg
DD0113 tumour weight, Mean (EDO80: EDO-S101 80 mg/kg single dose, day 69 from inoculum): 531.6 mg
DD0113 tumour weight, Mean (EDO80: EDO-S101 80 mg/kg single dose, day 72 from inoculum): 581.5 mg
DD0113 tumour weight, Mean (EDO80: EDO-S101 80 mg/kg single dose, day 75 from inoculum): 560.9 mg
DD0113 tumour weight, Mean (EDO80: EDO-S101 80 mg/kg single dose, day 79 from inoculum): 564.1 mg
DD0113 tumour weight, Mean (EDO80: EDO-S101 80 mg/kg single dose, day 83 from inoculum): 475.0 mg
DD0113 tumour weight, Mean (EDO80: EDO-S101 80 mg/kg single dose, day 87 from inoculum): 594.1 mg
DD0113 tumour weight, Mean (EDO80: EDO-S101 80 mg/kg single dose, day 90 from inoculum): 638.8 mg
DD0113 tumour weight, Mean (EDO80: EDO-S101 80 mg/kg single dose, day 94 from inoculum): 826.0 mg
DD0113 tumour weight, Mean (EDO80: EDO-S101 80 mg/kg single dose, day 98 from inoculum): 927.2 mg
DD0113 tumour weight, Mean (EDO80: EDO-S101 80 mg/kg single dose, day 100 from inoculum): 1209.8 mg
DD0113 tumour weight, Mean (EDO80: EDO-S101 80 mg/kg single dose, day 103 from inoculum): 1301.2 mg
